# Counter-ions that a name gives are not always drawn. Like-named read-outs stand apart in the source and are kept apart here.
# How the values were obtained:
# [1] = test system: DXR-induced leucopenia; assay: Doxorubicin (DXR)-induced leucopenia rat model, recovery of peripheral WBC; type: in vivo; details: 200 mg/kg gavage, compared to C-MED-100
# Source text: In vivo evaluation of the efficacy of quinic acid as an active ingredient isolated from water soluble Cat's Claw extracts. A rat model was used to evaluate if active ingredients isolated from water soluble extracts of Cat's Claw could be shown to be effective in vivo by inducing recovery of peripheral white blood cells (WBC) after doxorubicin (DXR)-induced leucopenia. […] The rat study experimental design used to compare quinic acid and C-MED-100® is outlined in detail (diagrammatic form) below.
# 50 female W/Fu rats, weighing 150-180 g each, were divided into 5 groups of 10 rats per group. Doxorubicin, obtained from Pharmacia and Upjohn, was administered in a 2 mg/kg dose for all rats groups 2-5, IP injection (day 1, 3, 5). Group 3 also received C-MED-100® (Batch No E-40622), administered in a dose of 80 mg/kg, gavage daily from day 6 (24 hours after the third/last treatment of DXR) to the end of experiment (day 21/22). […]
# The body weight (GM) of each rat was measured before and at the end of the experiment. […] Whole peripheral blood samples were collected into K3-EDTA containing tubes by periorbital puncture and then analyzed for WBC within 1 hour with an automated hematology analyzer (Sysmex, K-1000) Organ weights from major tissues (liver, kidney, lung, heart, spleen) were also collected and used as an indicator of any toxicity.
# [2] = test system: HL-60 human leukemic cells; assay: In vitro cytotoxicity in HL-60 cells, MTT assay (Table 2); type: cell-based; details: Homo sapiens, HL-60; no base hydrolysis
# Experimental: In Table 2, the in vitro cytotoxicity of the various components were determined in HL-60 human leukemic cells using the MTT assay and calculation of IC50 values as described in detail elsewhere. Quinic acid ester content was determined by the Bartos method (Bartos, 1980). […] The quinic acid traveling between Rf=0.2-0.3 was eluted from the TLC plates with 1% aqueous ammonia and the relative quantity estimated by absorption at 200 nm as ± being less than 0.050 and “++++” denoting the highest amount detected, with a decrease in the number of “+” signs corresponding to a decrease in the amount of QA detected.
# [3] = test system: Jurkat T cells; assay: Jurkat T cell death and apoptosis (Annexin V / 7AAD); type: cell-based, human; details: 24 hours, concentrations inhibiting NF-κB
# Experimental: FIG. 5A illustrates Jurkat T that are cells transfected with a NF-κB reporter construct were pre-cultured with various concentrations of QA or C-MED-100® for two hours. PMA (50 ng/ml) and ionomycin (1 μM) were thereafter added and the cells incubated for another six hours. The mean induction of luciferase activity in triplicate cultures from one representative experiment out of four are shown (left panel). QA induced no cell death or apoptosis in Jurkat T cells at concentrations which inhibited NF-κB activity. Jurkat T cells were incubated with various concentrations of QA for 24 hours and thereafter stained with Annexin V and 7AAD before analysis by flow cytometry. […]
# Cell cultures: Raji human Burkitt's lymphoma (CCL-86), Jurkat human acute T-cell leukemia (TIB-152), 70Z/3 mouse pre-B lymphocyte cell line (TIB-158), or mouse spleen cells were used in the experiments. […] The number of Raji cells in duplicate cultures were determined with a Coulter Z1 cell counter (Beckman Coulter Inc, Fullerton, Calif., USA) three times each. The number of viable and dead cells were determined using trypan blue exclusion, by counting three independent samples from duplicate cultures. […] Proliferation was detected by measuring thymidine incorporation after a 4 hours pulse with 1 μCi ^3[H]-thymidine (Amersham Pharmacia).
# [4] = test system: HL-60 W6899 cells; assay: HL-60 bioassay, microculture 5 days, clonogenicity estimated by MTT assay (Table 1); type: cell-based, human; details: Homo sapiens, HL-60, parameters are approximations
# Experimental: An assay of biological activity of C-MED-100®'s active ingredient is prepared as follows: HL-60 […] cells are exposed in microculture at 5000 cells per well (96-well plates) for 5 days at 37 ? C. in a CO2 incubator. After incubation, the cells are washed with saline and clonogenicity estimated by MTT assay.
# [5] = test system: Jurkat T cells; assay: Jurkat T cell proliferation (data not shown); type: cell-based, human
# [6] = test system: mouse spleen cells activated with Con A or LPS; assay: Proliferation of mitogen-stimulated mouse spleen cells (3[H]-thymidine incorporation); type: cell-based; details: Con A 2.5 μg/ml or LPS 10 μg/ml, 48 hours
# Experimental: FIG. 4A illustrates spleen cells (2×10^5) that were activated with Con A (left; 2.5 μg/ml) or LPS (right; 10 μg/ml) in the presence of indicated concentrations of C-MED-100®, QAA or QA. Proliferation was assayed after 48 hours by ^3[H]-thymidine incorporation in triplicate cultures. Results from one representative experiment out of three are presented as mean values±S.D.
# Cell cultures: Raji human Burkitt's lymphoma (CCL-86), Jurkat human acute T-cell leukemia (TIB-152), 70Z/3 mouse pre-B lymphocyte cell line (TIB-158), or mouse spleen cells were used in the experiments. The cells were cultured in RPMI medium (Life Technologies) supplemented with 10% FCS, 10 mM HEPES buffer, antibiotics, 50 μM 2-mercaptoethanol and 1 mM sodium pyruvate (all supplements from Life Technologies) at 37° C., 5% CO2. The number of Raji cells in duplicate cultures were determined with a Coulter Z1 cell counter (Beckman Coulter Inc, Fullerton, Calif., USA) three times each. The number of viable and dead cells were determined using trypan blue exclusion, by counting three independent samples from duplicate cultures. […] Proliferation was detected by measuring thymidine incorporation after a 4 hours pulse with 1 μCi ^3[H]-thymidine (Amersham Pharmacia).
structure (smiles),measurement,setting,value
"O=C(O)C1(O)CC(O)C(O)C(O)C1 (stereo not drawn) [QA, 1,3,4,5-tetrahydroxy-cyclohexanecarboxylic acid]",recovery from DXR-induced leucopenia,[1],could induce recovery from DXR-induced leucopenia about as effectively as 80 mg/kg C-MED-100® could
same,IC50,[2],> 2300 µg/mL
same,cell death in Jurkat T cells,[3],did not induce cell death
same,IC50,"[4]; after 1% aqueous ammonia, read-out: Bioassay after 1% aqueous ammonia IC50 HL-60 cells",> 3000 µg/mL
same,IC50,[4]; read-out: Bioassay efficacy using IC50 in HL-60 cells,> 3000 µg/mL
same,proliferation of Jurkat T cells,[5],did not inhibit proliferation
"O=C(O)[C@]1(O)C[C@@H](O)[C@@H](O)[C@H](O)C1 [QAA, quinic acid ammonium salt]",recovery from DXR-induced leucopenia,[1],could induce recovery from DXR-induced leucopenia about as effectively as 80 mg/kg C-MED-100® could
same,IC50,[2],500 µg/mL
same,proliferation of mitogen-stimulated mouse lymphocytes,[6],inhibited cell proliferation in a dose dependent manner

# Reference: patent publication US7947312B2, “Method of preparation and composition of a water soluble extract of the bioactive component of the plant species Uncaria for enhancing immune, anti-inflammatory, anti-tumor and DNA repair processes of warm blooded animals” (priority 2002, dated 2011)
